Tested on: C57BL/6J mice
Assay: Blood glucose after oral load of glucose together with amino acid or peptide
Type: in vivo
Details: for Blood glucose levels in mice loaded with glucose: non-diabetic mice, glucose 2 mg/g bw and peptide 1 mg/g bw orally
Experimental: An experiment was performed in adult male C57BL/6J mice purchased from Jackson Lab (Bar Harbor, Me.). Fasted mice were given glucose (2 mg/g body weight, diamond line in FIG. 1, n=10) or glycine (0.35 mg/g bw, square line in FIG. 1, n=10) and glucose by gavaging. Blood glucose was measured at 0, 30, 60, 90, and 120 min after giving glucose.
An experiment was performed in adult male C57BL/6J mice purchased from Jackson Lab. In the control group (diamond line in FIG. 13, n=10), glucose was orally administered at dose of 2 mg/g bw. In the Diapin and LLG group (square line or triangle line, n=9), glucose and Diapin or glucose and LLG were orally administered at dose of 2 mg/g bw and 1 mg/g bw, respectively. Blood glucose was measured at 0, 30, 60, 90 and 120 min after gavaging glucose and Diapin.
An experiment was performed in adult male C57BL/6J mice purchased from Jackson Lab. In the control group (diamond line in FIG. 14, n=10), glucose was orally administered at dose of 2 mg/g bw. […] Blood glucose was measured at 0, 30, 60, 90 and 120 min after gavaging glucose and GLG or GLL.
An experiment was performed in adult male C57BL/6J mice purchased from Jackson Lab. […] Blood glucose was measured at 0, 0.5, 1, 1.5 and 2 hours after gavaging glucose, Diapin and amidated Diapin.
An experiment was performed in adult male C57BL/6J mice purchased from Jackson Lab. […] Blood glucose was measured at 0, 0.5, 1, 1.5 and 2 hours after gavaging glucose, Diapin, and acetylated Diapin.
An experiment was performed in adult male C57BL/6J mice purchased from Jackson Lab. […] Blood glucose was measured at 0, 0.5, 1, 1.5 and 2 hours after gavaging glucose, Diapin and amidated/acetylated Diapin.
(§1) An experiment was performed in adult male C57BL/6J mice purchased from Jackson Lab. […] Blood glucose was measured at 30, 60, 90 and 120 min after giving glucose. […]
as §1

Compound	Blood glucose levels in mice loaded with glucose	Blood glucose levels compared to the control group (glycine 0.35 mg/g bw and glucose 2 mg/g bw by gavage, fasted mice, any time point (0, 30, 60, 90, 120 min))
Leucine-Leucine-Glycine [LLG]	significantly reduce blood glucose levels	–
NCC(=O)O [glycine, reference compound]	–	not significantly changed
Glycine-Leucine-Leucine [GLL]	significantly reduce blood glucose levels	–
